Values of other authors as cited in patent publication US20040170677A1, “Method of drug loading in liposomes by gradient” (priority 2002, published 2004).

Settings: patients receiving doses greater than 550 mg per square meter of body area

Question: With COc1cccc2c1C(=O)c1c(O)c3c(c(O)c1C2=O)C[C@@](O)(C(=O)CO)C[C@@H]3O[C@H]1C[C@H](N)[C@H](O)[C@H](C)O1 [doxorubicin, Doxorubicin] as the compound, how does the “irreversible cardiomyopathy leading to congestive heart failure, share of patients” value read?
Answer: 1-10%
